Columns and labels:
Mus musculus [1] = assay: Analgesic activity in mice at 20 mg/kg, sc by acetic acid writhing test; type: functional; conditions: route subcutaneous
Mus musculus [2] = assay: Analgesic activity in mice at 10 mg/kg, sc by acetic acid writhing test; type: functional; conditions: route subcutaneous
[3] = Toxicity in […] at 10 mg/kg, sc assessed as rate of death; type: organism-based; parameters: dose 10 mg/kg, route subcutaneous; conditions: in vivo, read-out: Activity
[4] = Toxicity in […] at 20 mg/kg, sc assessed as rate of death; type: organism-based; parameters: dose 20 mg/kg, route subcutaneous; conditions: in vivo, read-out: Activity
Mus musculus [5] = assay: Analgesic activity in mice at 5 mg/kg, sc by acetic acid writhing test; conditions: read-out: Inhibition
[6] = Toxicity in rat at 5 mg/kg, sc assessed as rate of death; conditions: in vivo

Work on Clc1ccc(CNC2CCCC2)cn1 yielded an inhibition in vivo at 20 mg/kg (Mus musculus [1]) of 66%, an inhibition in vivo at 10 mg/kg (Mus musculus [2]) of 37% and a mortality [3] of 0%. For the same compound, the mortality [4] was 0%.

Compound c1ccc(NCCC2CCCO2)nc1 (centres undefined) has an inhibition in vivo at 20 mg/kg (Mus musculus [1]) of 0% and a mortality [4] of 0%.

Work on Clc1ccc(NCC2CCCO2)cn1 (centres undefined) yielded an inhibition in vivo at 20 mg/kg (Mus musculus [1]) of 0% and a mortality [4] of 0%.

Compound Clc1ccc(NCC2CO2)cn1 (centres undefined) has an inhibition in vivo at 20 mg/kg (Mus musculus [1]) of 20.5% and a mortality [4] of 0%.

Work on c1ccc(CNC2CCCC2)nc1 yielded an inhibition in vivo at 20 mg/kg (Mus musculus [1]) of 0% and a mortality [4] of 0%.

For c1ccc(NCCc2ccco2)nc1, the inhibition in vivo at 20 mg/kg (Mus musculus [1]) was 0% and the mortality [4] was 0%.

c1cncc(CNCCc2ccco2)c1 gave an inhibition in vivo at 20 mg/kg (Mus musculus [1]) of 50%, an inhibition in vivo at 10 mg/kg (Mus musculus [2]) of 0% and a mortality [3] of 0%. It also gave a mortality [4] of 0%.

c1cncc(CNCCC2CCCO2)c1 (centres undefined) gave an inhibition in vivo at 20 mg/kg (Mus musculus [1]) of 23%, an inhibition in vivo at 10 mg/kg (Mus musculus [2]) of 56% and a mortality [3] of 0%. For the same compound, the mortality [4] was 0%.

For Clc1ccc(CNCCc2ccco2)cn1, the inhibition in vivo at 20 mg/kg (Mus musculus [1]) was 46%, the inhibition in vivo at 10 mg/kg (Mus musculus [2]) was 41% and the mortality [3] was 0%. The mortality [4] was 0%.

c1cncc(CNC2CCCC2)c1 gave an inhibition in vivo at 20 mg/kg (Mus musculus [1]) of 61%, an inhibition in vivo at 10 mg/kg (Mus musculus [2]) of 0% and a mortality [3] of 0%. The mortality [4] was 0%.

Work on Clc1ccc(CNCCC2CCCO2)cn1 (centres undefined) yielded an inhibition in vivo at 20 mg/kg (Mus musculus [1]) of 35% and a mortality [4] of 0%.

CN1CCC[C@H]1c1cccnc1 [NICOTINE] gave an inhibition in vivo at 5 mg/kg (Mus musculus [5]) of 88%, an inhibition in vivo at 10 mg/kg (Mus musculus [2]) of 100% and a mortality [3] of 50%. For the same compound, the mortality [4] was 100% and the mortality [6] was 25%.

c1cncc(NCC2CO2)c1 (centres undefined) gave an inhibition in vivo at 20 mg/kg (Mus musculus [1]) of 0% and a mortality [4] of 0%.

— ChEMBL document CHEMBL1146105, “Synthesis and analgesic activity of secondary amine analogues of pyridylmethylamine and positional isomeric analogues of ABT-594” (Bioorg Med Chem Lett, 2006)
